Laboratory results taken from ChEMBL document CHEMBL4118113, “Lipophilic Efficiency as an Important Metric in Drug Design” (J Med Chem, 2018).

How the values were obtained:
[1] = molecular target: Aldo-keto reductase family 1 member B1 (Homo sapiens, UniProt P15121); assay: Inhibition of human ALR2
[2] = Lipophilicity, log D of the compound; assay type: physicochemical; conditions: octanol/water
[3] = molecular target: ALK tyrosine kinase receptor (Homo sapiens, UniProt Q9UM73, L1196M); assay: Inhibition of ALK L1196M mutant (unknown origin)
Sequence of ALK tyrosine kinase receptor (Q9UM73 19-1620 L1196M limits assumed): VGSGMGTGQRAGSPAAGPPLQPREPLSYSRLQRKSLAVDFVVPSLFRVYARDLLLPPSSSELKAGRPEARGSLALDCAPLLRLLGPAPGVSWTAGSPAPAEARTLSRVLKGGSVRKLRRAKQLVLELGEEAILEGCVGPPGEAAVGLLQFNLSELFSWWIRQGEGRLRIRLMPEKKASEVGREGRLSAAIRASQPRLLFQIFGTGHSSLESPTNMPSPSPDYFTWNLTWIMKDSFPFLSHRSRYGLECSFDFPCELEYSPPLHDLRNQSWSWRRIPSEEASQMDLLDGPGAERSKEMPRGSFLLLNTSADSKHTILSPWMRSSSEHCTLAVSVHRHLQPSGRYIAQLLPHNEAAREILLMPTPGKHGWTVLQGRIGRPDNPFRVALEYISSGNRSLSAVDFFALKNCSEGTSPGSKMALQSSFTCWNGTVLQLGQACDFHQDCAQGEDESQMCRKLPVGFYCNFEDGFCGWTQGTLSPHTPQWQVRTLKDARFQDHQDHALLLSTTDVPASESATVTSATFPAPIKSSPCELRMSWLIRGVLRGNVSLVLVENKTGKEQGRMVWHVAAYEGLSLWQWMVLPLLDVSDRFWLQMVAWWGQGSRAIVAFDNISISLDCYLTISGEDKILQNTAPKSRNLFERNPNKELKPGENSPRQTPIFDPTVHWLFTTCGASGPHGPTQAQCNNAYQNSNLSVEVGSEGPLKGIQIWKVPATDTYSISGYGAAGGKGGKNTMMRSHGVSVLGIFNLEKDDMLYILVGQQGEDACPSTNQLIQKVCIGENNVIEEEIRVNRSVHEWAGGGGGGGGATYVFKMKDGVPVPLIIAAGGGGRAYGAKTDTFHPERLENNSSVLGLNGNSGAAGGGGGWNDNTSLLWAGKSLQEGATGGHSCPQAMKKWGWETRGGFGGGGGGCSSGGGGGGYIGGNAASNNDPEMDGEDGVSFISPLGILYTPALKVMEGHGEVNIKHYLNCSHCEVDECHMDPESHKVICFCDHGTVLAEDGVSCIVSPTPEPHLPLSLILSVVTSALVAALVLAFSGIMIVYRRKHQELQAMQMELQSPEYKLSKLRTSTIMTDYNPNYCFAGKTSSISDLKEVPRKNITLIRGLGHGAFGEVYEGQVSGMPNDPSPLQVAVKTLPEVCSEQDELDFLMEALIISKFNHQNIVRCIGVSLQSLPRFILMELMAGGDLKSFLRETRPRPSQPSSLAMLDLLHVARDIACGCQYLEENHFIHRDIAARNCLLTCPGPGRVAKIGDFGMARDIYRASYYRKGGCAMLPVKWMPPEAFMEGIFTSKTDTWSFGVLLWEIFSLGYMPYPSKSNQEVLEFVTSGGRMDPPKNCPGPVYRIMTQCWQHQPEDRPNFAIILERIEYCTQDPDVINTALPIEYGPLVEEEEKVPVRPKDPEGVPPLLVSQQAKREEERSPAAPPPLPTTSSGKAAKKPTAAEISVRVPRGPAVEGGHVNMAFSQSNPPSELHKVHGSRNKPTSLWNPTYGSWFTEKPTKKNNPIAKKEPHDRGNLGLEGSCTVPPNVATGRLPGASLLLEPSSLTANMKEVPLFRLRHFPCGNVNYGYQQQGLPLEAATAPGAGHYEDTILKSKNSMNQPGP

IC50 [1] [nM] | logD [2] | Ki [3] [nM] | Compound
550 |  |  | O=C(O)COc1cc(Cl)ccc1C(=O)NCc1ccc(Br)cc1
 | 2.2 | 4 | C[C@H]1Oc2cc(cnc2N)-c2c(nn(C)c2C#N)CN(C)C(=O)c2ccccc21
